Numbered stars: 1 amine (or outer) side, 2 acyl side, 3 side chain; on linkers, the order of the positions; unused ones are H or OH. Square brackets hold non-standard residues; d marks the D form. Peptide text beside a SMILES is read from it. * marks the point of attachment. Phe(4-Cl) = N[C@@H](Cc1ccc(Cl)cc1)C(=O)O; Phe(4-F) = N[C@@H](Cc1ccc(F)cc1)C(=O)O; Pro(4R-NH2) = N[C@H]1CN[C@H](C(=O)O)C1; X9 = CN(C)CC[C@@H](N[*:1])C(=O)[*:2]; dOrn(Me2) = CN(C)CCC[C@@H](N)C(=O)O; X2 = O=C([C@H]1CCCN([*:1])C1)[*:2]; dDap(Me2) = CN(C)C[C@@H](N)C(=O)O; Hyp = O=C(O)[C@@H]1C[C@@H](O)CN1; tBuAla = CC(C)(C)C[C@H](N)C(=O)O; NHcycloheptyl = C1CCCC(N*)CC1; NMeL = CN[C@@H](CC(C)C)C(=O)O; Octanoyl = CCCCCCCC(=O)*; Api = NC1(C(=O)O)CCNCC1

For the test, the target named is T1, NPR-B (Homo sapiens, UniProt P20594).
T1 construct: a functional assay using endogenously NPR-B expressing GTM-3 cells; endogenous in cells; host or cells: GTM-3 (human glaucoma trabecular meshwork cells)
T1 sequence (P20594 23-1047): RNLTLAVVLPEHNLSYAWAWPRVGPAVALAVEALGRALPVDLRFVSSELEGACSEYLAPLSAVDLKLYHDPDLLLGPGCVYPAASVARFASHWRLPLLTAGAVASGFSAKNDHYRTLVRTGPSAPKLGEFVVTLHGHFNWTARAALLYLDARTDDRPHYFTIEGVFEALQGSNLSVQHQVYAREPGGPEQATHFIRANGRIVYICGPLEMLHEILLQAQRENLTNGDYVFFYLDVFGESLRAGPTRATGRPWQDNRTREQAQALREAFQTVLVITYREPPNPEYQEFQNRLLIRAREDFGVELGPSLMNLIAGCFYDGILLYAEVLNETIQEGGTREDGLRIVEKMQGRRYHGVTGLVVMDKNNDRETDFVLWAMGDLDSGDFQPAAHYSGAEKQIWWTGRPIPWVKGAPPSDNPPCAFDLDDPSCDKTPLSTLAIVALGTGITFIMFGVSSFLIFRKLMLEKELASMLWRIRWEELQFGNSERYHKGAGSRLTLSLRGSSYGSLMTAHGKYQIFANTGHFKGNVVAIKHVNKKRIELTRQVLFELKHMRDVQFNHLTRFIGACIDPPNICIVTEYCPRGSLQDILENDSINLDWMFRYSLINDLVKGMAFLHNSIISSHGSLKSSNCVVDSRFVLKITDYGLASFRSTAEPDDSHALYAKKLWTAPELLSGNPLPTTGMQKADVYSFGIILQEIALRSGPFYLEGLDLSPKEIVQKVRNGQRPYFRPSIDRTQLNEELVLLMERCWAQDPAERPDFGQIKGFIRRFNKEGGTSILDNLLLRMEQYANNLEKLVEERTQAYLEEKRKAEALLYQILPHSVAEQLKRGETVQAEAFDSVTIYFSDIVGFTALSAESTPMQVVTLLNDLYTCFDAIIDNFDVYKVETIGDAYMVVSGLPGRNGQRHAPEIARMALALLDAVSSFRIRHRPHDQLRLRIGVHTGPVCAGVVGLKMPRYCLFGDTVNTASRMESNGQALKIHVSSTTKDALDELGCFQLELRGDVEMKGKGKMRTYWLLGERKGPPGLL
The experiment in a line: NPR-B induced production of cyclic GMP in human glaucoma trabecular meshwork cells (GTM-3). Type of test: cell-based. To be noted: group by EC50 and Emax (CNP = 100%); Table 4; read-out: Activity (group), NPR-B activation assayed with GTM-3 cells.
As to `CCCCCCCC(=O)N1CCC[C@H](C(=O)N[C@@H](Cc2ccccc2)C(=O)N[C@H](CC(C)C)C(=O)N[C@@H](CC(C)C)C(=O)N2CCC[C@H]2C(=O)N(C)[C@@H](CC(C)C)C(=O)N[C@@H](CC(=O)O)C(=O)N[C@@H](CCCNC(=N)N)C(=O)N[C@H](C(N)=O)[C@@H](C)CC)C1` [JAL-1040, Occ-Sni-Phe-leu-Leu-Pro-Nml-Asp-Arg-Ile-NH2] (HELM PEPTIDE1{[CCCCCCCC(=O)[*:2]].[O=C([C@H]1CCCN([*:1])C1)[*:2]].F.[dL].L.P.[meL].D.R.I.[am]}$$$$V2.0), the EC50 was under 1000 nM.

In the case of `CCCCCCCC(=O)N1CCC[C@H](C(=O)N[C@@H](Cc2ccccc2)C(=O)N[C@H](CC(C)C)C(=O)N[C@@H](CC(C)C)C(=O)N2C[C@H](O)C[C@H]2C(=O)N[C@@H](CC(C)(C)C)C(=O)N[C@@H](CC(=O)O)C(=O)N2CCC[C@H]2C(=O)NC2CCCCCC2)C1` [JAL-1595, Occ-Sni-Phe-leu-Leu-Hyp-Npg-Asp-Pro-Che] (Octanoyl-[X2]F[dL]L[Hyp][tBuAla]DP-NHcycloheptyl), the EC50 is under 1000 nM.

As for `CCCCCCCC(=O)N1CCC[C@H](C(=O)N[C@@H](Cc2ccccc2)C(=O)N[C@H](CN(C)C)C(=O)N[C@@H](CC(C)C)C(=O)N2C[C@H](N)C[C@H]2C(=O)N(C)[C@@H](CC(C)C)C(=O)N[C@H](C(=O)N[C@@H](CCCNC(=N)N)C(=O)N[C@H](C(N)=O)[C@@H](C)CC)C(C)C)C1` [JAL-1403, Occ-Sni-Phe-dap(Me2)-Leu-Tap-Nml-Val-Arg-Ile-NH2] (Octanoyl-[X2]F[dDap(Me2)]L[Pro(4R-NH2)][NMeL]VRI-NH2), the EC50 was under 1000 nM.

As to `CCCCCCCC(=O)N1CCC[C@H](C(=O)N[C@@H](Cc2ccccc2)C(=O)N[C@H](CCN(C)C)C(=O)N[C@@H](CC(C)C)C(=O)N2C[C@H](O)C[C@H]2C(=O)N(C)[C@@H](CC(C)C)C(=O)N[C@@H](CC(=O)O)C(=O)N[C@@H](CCCNC(=N)N)C(=O)N[C@H](C(N)=O)[C@@H](C)CC)C1` [JAL-1785, Occ-Sni-Phe-dab(Me2)-Leu-Hyp-Nml-Asp-Arg-Ile-NH2] (Octanoyl-[X2]F[X9]L[Hyp][NMeL]DRI-NH2), the EC50 is under 1000 nM.

Turning to `CCCCCCCC(=O)N1CCC[C@H](C(=O)N[C@@H](Cc2ccccc2)C(=O)N[C@H](CN(C)C)C(=O)N[C@@H](CC(C)C)C(=O)N2C[C@H](N)C[C@H]2C(=O)N(C)[C@@H](CC(C)C)C(=O)N[C@@H](CC(=O)O)C(=O)N2CCC[C@H]2C(=O)NC2CCCCCC2)C1` [JAL-1603, Occ-Sni-Phe-dap(Me2)-Leu-Tap-Nml-Asp-Pro-Che] (Octanoyl-[X2]F[dDap(Me2)]L[Pro(4R-NH2)][NMeL]DP-NHcycloheptyl), the EC50 is under 1000 nM.

As for `CCCCCCCC(=O)N1CCC[C@H](C(=O)N[C@@H](Cc2ccc(F)cc2)C(=O)N[C@H](CC(C)C)C(=O)N[C@@H](CC(C)C)C(=O)N2C[C@H](O)C[C@H]2C(=O)N(C)[C@@H](CC(C)C)C(=O)N[C@@H](CC(=O)O)C(=O)N[C@@H](CCCNC(=N)N)C(=O)N[C@H](C(N)=O)[C@@H](C)CC)C1` [JAL-1487, Occ-Sni-Pff-leu-Leu-Hyp-Nml-Asp-Arg-Ile-NH2] (Octanoyl-[X2][Phe(4-F)][dL]L[Hyp][NMeL]DRI-NH2), the EC50 was under 1000 nM.

In the case of `CCCCCCCC(=O)N1CCC[C@H](C(=O)N[C@@H](Cc2ccccc2)C(=O)N[C@H](CCCN(C)C)C(=O)N[C@@H](CC(C)C)C(=O)N2C[C@H](N)C[C@H]2C(=O)N(C)[C@@H](CC(C)C)C(=O)N[C@@H](CC(=O)O)C(=O)N[C@@H](CCCNC(=N)N)C(=O)N[C@H](C(N)=O)[C@@H](C)CC)C1` [JAL-1936, Occ-Sni-Phe-orn(Me2)-Leu-Tap-Nml-Asp-Arg-Ile-NH2] (Octanoyl-[X2]F[dOrn(Me2)]L[Pro(4R-NH2)][NMeL]DRI-NH2), the EC50 was under 1000 nM.

With `CCCCCCCC(=O)N1CCCC[C@@H]1C(=O)N[C@@H](Cc1ccccc1)C(=O)N[C@H](CC(C)C)C(=O)N[C@@H](CC(C)C)C(=O)N1C[C@H](O)C[C@H]1C(=O)N[C@@H](CC(C)C)C(=O)N[C@@H](CC(=O)O)C(=O)N[C@@H](CCCNC(=N)N)C(=O)N[C@H](C(N)=O)[C@@H](C)CC` [JAL-1054, Occ-pip-Phe-leu-Leu-Hyp-Leu-Asp-Arg-Ile-NH2] (HELM PEPTIDE1{[CCCCCCCC(=O)[*:2]].[O=C([C@H]1CCCCN1[*:1])[*:2]].F.[dL].L.[Hyp].L.D.R.I.[am]}$$$$V2.0), the EC50 was under 1000 nM.

Regarding `CCCCCCCC(=O)N1CCC[C@H](C(=O)N[C@@H](Cc2ccccc2)C(=O)N[C@H](CCN(C)C)C(=O)N[C@@H](CC(C)C)C(=O)N2C[C@H](O)C[C@H]2C(=O)N(C)[C@@H](CC(C)C)C(=O)N[C@H](C(=O)N[C@@H](CCCNC(=N)N)C(=O)NC2CCCCCC2)C(C)C)C1` [JAL-1784, Occ-Sni-Phe-dab(Me2)-Leu-Hyp-Nml-Val-Arg-Che] (Octanoyl-[X2]F[X9]L[Hyp][NMeL]VR-NHcycloheptyl), the EC50 was under 1000 nM.

`CCCCCCCC(=O)N1CCC[C@H](C(=O)N[C@@H](Cc2ccc(Cl)cc2)C(=O)N[C@H](CC(C)C)C(=O)N[C@@H](CC(C)C)C(=O)N2C[C@H](O)C[C@H]2C(=O)N(C)[C@@H](CC(C)C)C(=O)N[C@@H](CC(=O)O)C(=O)N[C@@H](CCCNC(=N)N)C(=O)N[C@H](C(N)=O)[C@@H](C)CC)C1` [JAL-1493, Occ-Sni-Pcf-leu-Leu-Hyp-Nml-Asp-Arg-Ile-NH2] (Octanoyl-[X2][Phe(4-Cl)][dL]L[Hyp][NMeL]DRI-NH2): the EC50 is under 1000 nM.

Regarding `CCCCCCCC(=O)N[C@H](C)C(=O)N[C@@H](Cc1ccccc1)C(=O)NC1(C(=O)N[C@@H](CC(C)C)C(=O)N2C[C@H](N)C[C@H]2C(=O)N(C)[C@@H](CC(C)C)C(=O)N[C@@H](CC(=O)O)C(=O)N2CCC[C@H]2C(=O)N[C@H](C(N)=O)[C@@H](C)CC)CCNCC1` [JAL-1452, Occ-ala-Phe-Apc-Leu-Tap-Nml-Asp-Pro-Ile-NH2] (Octanoyl-[dA]F[Api]L[Pro(4R-NH2)][NMeL]DPI-NH2), the EC50 was under 1000 nM.

As to `CCCCCCCC(=O)N[C@H](C)C(=O)N[C@@H](Cc1ccccc1)C(=O)N[C@H](CCCNC(=N)N)C(=O)N[C@@H](CC(C)C)C(=O)N1C[C@H](O)C[C@H]1C(=O)N(C)C(CC(C)(C)C)C(=O)N[C@@H](CC(=O)O)C(=O)N[C@@H](CCCNC(=N)N)C(=O)N[C@H](C(N)=O)[C@@H](C)CC` (stereo partly drawn) [JAL-1284, Occ-ala-Phe-arg-Leu-Hyp-(SH-158)-Asp-Arg-Ile-NH2] (HELM PEPTIDE1{[CCCCCCCC(=O)[*:2]].[dA].F.[dR].L.[Hyp].[CN(C(CC(C)(C)C)C(=O)[*:2])[*:1]].D.R.I.[am]}$$$$V2.0), the EC50 was under 1000 nM.

As to `CCCCCCCC(=O)N[C@H](C)C(=O)N[C@@H](Cc1ccccc1)C(=O)N[C@H](CC(C)C)C(=O)N[C@@H](CC(C)C)C(=O)N1C[C@H](O)C[C@H]1C(=O)N(C)[C@@H](CC(C)C)C(=O)N[C@@H](CC(=O)O)C(=O)N(C)[C@@H](CCCNC(=N)N)C(=O)N[C@H](C(N)=O)[C@@H](C)CC` [JAL-1417, Occ-ala-Phe-leu-Leu-Hyp-Nml-Asp-Nmr-Ile-NH2] (HELM PEPTIDE1{[CCCCCCCC(=O)[*:2]].[dA].F.[dL].L.[Hyp].[meL].D.[meR].I.[am]}$$$$V2.0), the EC50 is under 1000 nM.

As to `CCCCCCCC(=O)N[C@@]1(C)CCN([C@@H](Cc2ccccc2)C(=O)N[C@H](CC(C)C)C(=O)N[C@@H](CC(C)C)C(=O)N2C[C@H](O)C[C@H]2C(=O)N(C)[C@@H](CC(C)C)C(=O)N[C@@H](CC(=O)O)C(=O)N[C@@H](CCCNC(=N)N)C(=O)N[C@H](C(N)=O)[C@@H](C)CC)C1=O` [JAL-1774, (AR-314-102)-leu-Leu-Hyp-Nml-Asp-Arg-Ile-NH2], the EC50 was under 1000 nM.

These data come from patent US9822147B2, “Methods of treating ophthalmic diseases using NPR-B agonists” (priority 2009, dated 2017).
